We go through five compounds from the NIST ThermoML archive (doi:10.1016/j.tca.2012.03.018).

Numbers after ± are expanded uncertainties.

A short description of this series: molar enthalpy of vaporization or sublimation. The note with it: Liquid.

Take `CCn1cc[n+](C)c1.O=S(=O)([N-]S(=O)(=O)C(F)(F)F)C(F)(F)F`: the molar enthalpy (525 K) amounted to 26.4 ± 0.717 kcal/mol.
For `CCCCOC(=O)c1ccccc1C(=O)OCCCC` [dibutyl phthalate], the molar enthalpy (393 K) came to 20.1 ± 0.382 kcal/mol.
Consider `CCCCCCCCCCCCCCCCCC(=O)OCC` [ethyl octadecanoate], for which the molar enthalpy runs as follows: (373 K) 22 ± 0.335 kcal/mol; (383.5 K, Transpiration) 22.3 ± 0.335 kcal/mol.
As to `CCCCCCCCCCCCCCCC` [hexadecane], the molar enthalpy by setting is: (333.5 K, Transpiration) 17.9 ± 0.191 kcal/mol; (353 K) 17.8 ± 0.382 kcal/mol.
Take `CCCCCCCCCCCCCCCCCC(=O)OC` [methyl octadecanoate]: the molar enthalpy (353 K) is 21.6 ± 0.239 kcal/mol.
